Reference: US20250313563A1, “GLYCOGEN SYNTHASE KINASE 3 INHIBITORS AND USES THEREOF” (The Broad Institute, Inc., priority 2022, published 2025)
Like-named read-outs stand apart in the source and are kept apart here.

Tests used:
[1] = target: GSK3b (GST-full length GSK3b) (Homo sapiens (Human), UniProt P49841); assay: GSK3b TR-FRET kinase assay; assay type: biochemical
Description: (§1) TR-FRET Assay: The assay was performed in a white, 384 well, low volume, flat bottom plate (Grenier). After a 30 minute preincubation in assay buffer with the indicated concentration of compound, the kinase activity was initiated by the addition of the substrates. 1 nM GSK3α (GST-full length GSK3α [SignalChem G08-10G]) or 1 nM GSK3b (GST-full length GSK3b: [SignalChem G08-9G]) were then incubated at ambient temperature for 100 minutes in 10 μL of 50 mM Tris, pH 7.5, 20 mM MgCl2, 0.05 mM DTT, 100 μg/mL BSA and 1% DMSO, with 200 nM biotinylated peptide substrate (biotinylated and S645 phosphorylated glycogen synthase 631-650) and either 4 μM ATP (GSK3α, Table 16) or 2 μM ATP (GSK3b, Table 16) or 1 mM ATP (Table 17). The kinase activity was quenched with 2 μL of 250 mM EDTA. A 10 μL volume of 40 nM Strepavidin-d2, 2 nM Tb^2+-pSer641 antibody in TR-FRET Detection Buffer (Invitrogen) was then added. After 60 min at room temperature the plate was read on Envision plate reader using Ex: 340 nm, Em: 615 nm and […]. The normalized 665/615 Signal ratio versus log compound concentration was analyzed by XLFIT to yield IC50 values.

[2] = target: GSK3α (GST-full length GSK3α) (Homo sapiens (Human), UniProt P49840); assay: GSK3α TR-FRET kinase assay; assay type: biochemical
Chain of GSK3α (GST-full length GSK3α) (P49840 whole entry): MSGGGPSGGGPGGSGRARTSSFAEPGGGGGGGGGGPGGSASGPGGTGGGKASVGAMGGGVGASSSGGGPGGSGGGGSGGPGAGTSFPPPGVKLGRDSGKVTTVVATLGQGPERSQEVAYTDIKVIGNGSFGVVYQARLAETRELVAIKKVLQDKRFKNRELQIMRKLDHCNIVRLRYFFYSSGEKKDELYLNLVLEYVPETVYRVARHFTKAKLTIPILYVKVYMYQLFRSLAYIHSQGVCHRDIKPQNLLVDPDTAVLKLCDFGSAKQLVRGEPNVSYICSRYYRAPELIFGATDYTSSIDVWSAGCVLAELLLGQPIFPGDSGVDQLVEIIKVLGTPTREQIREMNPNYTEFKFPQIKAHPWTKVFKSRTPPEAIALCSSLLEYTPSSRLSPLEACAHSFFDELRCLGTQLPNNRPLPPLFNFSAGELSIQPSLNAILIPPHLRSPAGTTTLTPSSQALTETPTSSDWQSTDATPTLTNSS
Description: as §1

[3] = 1 nM GSK3b, 2 μM ATP, 30 minute preincubation, geometric mean, read-out: GSK3-B TR-FRET BIOCHEMICAL (TR-FRET), GMean, IC50
[4] = 1 nM GSK3α, 4 μM ATP, 30 minute preincubation, geometric mean, read-out: GSK3-A TR-FRET BIOCHEMICAL (TR-FRET), GMean, IC50
[5] = read-out: GSK3-B (TR-FRET 1 mM ATP), GMean, IC50, 1 mM ATP, geometric mean
[6] = read-out: GSK3-A (TR-FRET 1 mM ATP), GMean, IC50, 1 mM ATP, geometric mean
[7] = 1 nM GSK3b, 2 μM ATP, 30 minute preincubation, Table 16, read-out: GSK3-B TR-FRET BIOCHEMICAL (TR-FRET)
[8] = 1 nM GSK3α, 4 μM ATP, 30 minute preincubation, Table 16, read-out: GSK3-A TR-FRET BIOCHEMICAL (TR-FRET)

Chain of GSK3b (GST-full length GSK3b) (P49841 whole entry): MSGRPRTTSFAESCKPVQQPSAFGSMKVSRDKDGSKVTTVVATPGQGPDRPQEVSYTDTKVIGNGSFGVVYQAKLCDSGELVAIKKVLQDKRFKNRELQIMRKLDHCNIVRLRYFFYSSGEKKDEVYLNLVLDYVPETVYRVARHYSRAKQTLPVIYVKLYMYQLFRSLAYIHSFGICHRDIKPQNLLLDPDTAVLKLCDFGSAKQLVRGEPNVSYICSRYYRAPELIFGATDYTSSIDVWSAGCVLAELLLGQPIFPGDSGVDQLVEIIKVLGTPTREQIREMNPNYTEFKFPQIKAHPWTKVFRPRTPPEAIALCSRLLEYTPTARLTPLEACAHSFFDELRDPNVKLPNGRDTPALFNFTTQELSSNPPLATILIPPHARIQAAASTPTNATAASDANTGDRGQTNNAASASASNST

## CCC1(c2cccc(Br)c2)C2=C(CC(C)(C)CC2=O)Nc2n[nH]cc21 (stereo not drawn) [Compound 790734]
[1]; [3]
  IC50: > 5000 nM
[2]; [4]
  IC50: 100 to 1000 nM

## CCC1(c2cccc(C(F)(F)F)c2)C2=C(CC(C)(C)CC2=O)Nc2n[nH]cc21 (stereo not drawn) [Compound 790754]
[1]; [3]
  IC50: ≤ 100 nM
[1]; [5]
  IC50: 1000 to 5000 nM
[2]; [4]
  IC50: ≤ 100 nM
[2]; [6]
  IC50: 100 to 1000 nM

## CC(C)(C)Cc1[nH]nc2c1C1(CCc3c(F)cccc31)C1=C(CC(C)(C)CC1=O)N2 (stereo not drawn) [Compound 791256]
[1]; [3]
  IC50: 1000 to 5000 nM
[2]; [4]
  IC50: > 1700 nM

## CC[C@]1(c2ccccc2)C2=C(C[C@H](c3ccccc3)CC2=O)Nc2n[nH]cc21 [Compound 791262]
[1]; [3]
  IC50: > 5000 nM
[2]; [4]
  IC50: > 5000 nM

## CC[C@@]1(c2ccccc2)C2=C(C[C@H](c3ccccc3)CC2=O)Nc2n[nH]cc21 [Compound 791263]
[1]; [3]
  IC50: > 5000 nM
[2]; [4]
  IC50: > 5000 nM

## CC[C@]1(c2ccccc2)C2=C(C[C@@H](c3ccccc3)CC2=O)Nc2n[nH]cc21 [Compound 791264]
[1]; [3]
  IC50: > 5000 nM
[2]; [4]
  IC50: 100 to 1000 nM

## CC[C@@]1(c2ccccc2)C2=C(C[C@@H](c3ccccc3)CC2=O)Nc2n[nH]cc21 [Compound 791265]
[1]; [3]
  IC50: > 5000 nM
[2]; [4]
  IC50: 1000 to 5000 nM

## CC[C@]1(c2ccccc2)C2=C(Nc3n[nH]cc31)[C@@H]1CC[C@@H](C1)C2=O [Compound 791266]
[1]; [7]
  IC50: > 5000 nM
[2]; [8]
  IC50: > 5000 nM

## CC[C@@]1(c2ccccc2)C2=C(Nc3n[nH]cc31)[C@@H]1CC[C@@H](C1)C2=O [Compound 791268]
[1]; [7]
  IC50: > 5000 nM
[2]; [8]
  IC50: > 5000 nM

## CC[C@]1(c2ccccc2)C2=C(Nc3n[nH]cc31)[C@H]1CC[C@H](C1)C2=O [Compound 791269]
[1]; [7]
  IC50: 100 to 1000 nM
[2]; [8]
  IC50: 100 to 1000 nM

## CC[C@@]1(c2ccccc2)C2=C(Nc3n[nH]cc31)[C@H]1CC[C@H](C1)C2=O [Compound 791270]
[1]; [7]
  IC50: > 1700 nM
[2]; [8]
  IC50: 100 to 1000 nM

## CCC1(c2cccc(-c3ccncc3)c2)C2=C(CC(C)(C)CC2=O)Nc2n[nH]cc21 (stereo not drawn) [Compound 791271]
[1]; [3]
  IC50: 100 to 1000 nM
[2]; [4]
  IC50: ≤ 100 nM

## CCC1(c2cccc(-c3cccnc3)c2)C2=C(CC(C)(C)CC2=O)Nc2n[nH]cc21 (stereo not drawn) [Compound 791272]
[1]; [3]
  IC50: 100 to 1000 nM
[2]; [4]
  IC50: ≤ 100 nM

## C[C@@]1(c2ccccc2)C2=C(CC3(CCCC3)CC2=O)Nc2n[nH]cc21 [Compound 792338]
[1]; [3]
  IC50: 100 to 1000 nM
[2]; [4]
  IC50: ≤ 100 nM

## C[C@]1(c2ccccc2)C2=C(CC3(CCCC3)CC2=O)Nc2n[nH]cc21 [Compound 792339]
[1]; [3]
  IC50: > 5000 nM
[2]; [4]
  IC50: > 1700 nM

## CC[C@@]1(c2ccccc2)C2=C(CC(C)(C)CC2=O)Nc2n[nH]c(Br)c21 [Compound 792340]
[1]; [3]
  IC50: ≤ 100 nM
[1]; GSK3-B (TR-FRET 1 mM ATP), GMean, IC50, 1 mM ATP, geometric mean
  IC50: 100 to 1000 nM
[2]; [4]
  IC50: ≤ 100 nM
[2]; GSK3-A (TR-FRET 1 mM ATP), GMean, IC50, 1 mM ATP, geometric mean
  IC50: 100 to 1000 nM

## CC[C@]1(c2ccccc2)C2=C(CC(C)(C)CC2=O)Nc2n[nH]c(Br)c21 [Compound 792341]
[1]; [3]
  IC50: 100 to 1000 nM
[2]; [4]
  IC50: 100 to 1000 nM

## COc1cccc(C2(C)C3=C(CC(C)(C)CC3=O)Nc3n[nH]cc32)c1 (stereo not drawn) [Compound 792342]
[1]; [3]
  IC50: 100 to 1000 nM
[2]; [4]
  IC50: 100 to 1000 nM

## CCC1(c2cccc(Cl)c2)C2=C(CC(C)(C)CC2=O)Nc2n[nH]c(C(F)(F)F)c21 (stereo not drawn) [Compound 801309]
[1]; [3]
  IC50: > 1670 nM
[2]; [4]
  IC50: 1000 to 5000 nM

## CC[C@@]1(c2cccc(C(F)(F)F)c2)C2=C(CC3(CCCC3)CC2=O)Nc2n[nH]cc21 [Compound 801311]
[1]; [3]
  IC50: ≤ 100 nM
[1]; [5]
  IC50: 100 to 1000 nM
[2]; [4]
  IC50: ≤ 100 nM
[2]; [6]
  IC50: ≤ 100 nM

## CCC1(c2cccc(Cl)c2)C2=C(CC(C)(C)CC2=O)Nc2n[nH]c(Br)c21 (stereo not drawn) [Compound 801314]
[1]; [5]
  IC50: 100 to 1000 nM
[2]; [6]
  IC50: ≤ 100 nM

## CCC1(c2cccc(C3CC3)c2)C2=C(CC(C)(C)CC2=O)Nc2n[nH]cc21 (stereo not drawn) [Compound 801316]
[1]; [3]
  IC50: ≤ 100 nM
[2]; [4]
  IC50: ≤ 100 nM

## CCC1(c2cccc(N3CCCC3)c2)C2=C(CC(C)(C)CC2=O)Nc2n[nH]cc21 (stereo not drawn) [Compound 801317]
[1]; [3]
  IC50: 100 to 1000 nM
[2]; [4]
  IC50: 100 to 1000 nM

## CCC1(c2cccc(N(C)C(C)=O)c2)C2=C(CC(C)(C)CC2=O)Nc2n[nH]cc21 (stereo not drawn) [Compound 801319]
[1]; [3]
  IC50: ≤ 100 nM
[2]; [4]
  IC50: ≤ 100 nM
